Tests used:
[1] = system: TNFα-induced NFκB activation in 293 cells; experiment: NFκB/FL reporter assay; format: cell-based; conditions: TNFα 10 ng/ml, 7 h
Experimental: 293 cells transiently transfected with either NFκB/FL (firefly luciferase reporter construct under control of an NFκB-driven promoter) or control CMV promoter-driven FL reporter construct were treated with compounds and TNFα (10 ng/ml) for 7 h. Upon the addition of luciferin, bioluminescence was measured in cell lysates using a luminometer. Results can be seen in FIG. 20.
293 cells transiently transfected with either NFκB/FL or control FL reporter genes were treated with compounds and TNFα (10 ng/ml) for 7 h. Upon the addition of luciferin, bioluminescence was measured in cell lysates using a luminometer.

[2] = system: tetraubiquitin-firefly luciferase (4UbFL) reporter in HeLa cells; experiment: Cell culture assay for luciferase (4UbFL reporter); format: cell-based, human; conditions: 4 hr treatment
Experimental: Sub-confluent cultures of HeLa cells were transfected with 4UbFL or FL plasmids using Lipofectamine 2000 reagent (Life Technologies, Carlsbad, Calif.). […] Luciferase activity in cell lysate was determined with a luciferase assay kit (Promega, Madison, Wis.) according to the manufacturer's instructions. Bioluminescence was measured by using a Glomax Multidetection system (Promega, Madison, Wis., USA).
HeLa cells were transiently transfected with tetra ubiquitin-fused firefly luciferase (4UB-FL) plasmid. After 48 h, the transfected cells were treated with titrations of the indicated compounds for 4 h, and luciferase activity was measured. Data is expressed as a 4UB-FL fold change compared to untreated cells.

NCI-H929 cells = experiment: Active caspase-3 by FACS; format: cell-based, human; conditions: 0.5 μM, 8 h
Experimental: NCI-H929 cells were treated with RA195 (0.5 μM) and Bz(0.5 μM) for the period of 8 h. Cells were stained for PE-conjugated Caspase-3 antibody and measured active caspase-3 by FACS.

U266 cells = experiment: Active caspase-3 by FACS; format: cell-based; conditions: 0.5 μM, 8 h
Experimental: U266 cells were treated with RA195 (0.5 μM) and Bz(0.5 μM) for the period of 8 h. Cells were stained for PE-conjugated Caspase-3 antibody and measured active caspase-3 by FACS.

HeLa cells = experiment: Cell surface HSP90 staining; format: cell-based, human
Description: Cell surface HSP90 was detected by staining with purified anti-HSP90 mAb (Stressgen), followed by PE-conjugated anti-mouse IgG1. The data were acquired with a FACSCalibur and analyzed using CellQuest software.

Structure (SMILES)	TNFα-induced NFκB activation [1]	proteasome inhibition by 4UbFL stabilization (relative potency) [2]	active caspase-3 (NCI-H929 cells)	active caspase-3 (U266 cells)	surface display of HSP90 (HeLa cells)
CC(=O)N[C@@H](CCCCN)C(=O)N1C/C(=C\c2ccc(Cl)c(Cl)c2)C(=O)/C(=C/c2ccc(Cl)c(Cl)c2)C1.Cl [RA195Ac]	inhibited TNFα-induced NFκB activation	more potent than the parent molecule RA195	caused an increase in caspase-3 expression	caused an increase in caspase-3 expression	
Cl.NCCCC[C@H](NC(=O)OCc1ccccc1Cl)C(=O)N1C/C(=C\c2ccc([N+](=O)[O-])cc2)C(=O)/C(=C/c2ccc([N+](=O)[O-])cc2)C1 [RA195Bn]		more potent than the parent molecule RA195	caused an increase in caspase-3 expression	caused an increase in caspase-3 expression	
N.N.[Cl][Pt][Cl] [cisplatin]					did not induce surface display of HSP90

Reference: patent US10500198B2, “Bis-benzylidine piperidone proteasome inhibitor with anticancer activity” (The Johns Hopkins University, priority 2013, dated 2019)
